Several values for one entry are separate records, joined by “and”; a condition that tells them apart may be missing. Equal entries are not always repeated.
Key:
[1] = Pharmacokinetics in serum after i.p. injection; assay type: in vivo, mouse
Method: (§1) Pharmacokinetic analyses. To determine the pharmacokinetic parameters of AGX51, eight-week old male Balb/c mice (Taconic farms) were dosed once by i.p. injection with 30 mg/kg, 50 mg/kg or 100 mg/kg AGX51 prepared in 70% DMSO (n=3 mice per group). Another set of three mice was dosed with 100 mg/kg AGX51 prepared in 100% DMSO. Blood was collected at 30 minutes, 1 hour, 3 hours, 6 hours and 24 hours post AGX51 administration and plasma analyzed via LC-MS as per the protocol previously validated in the MSKCC Antitumor Assessment Core Facility. Following blood collection, the mice were sacrificed via CO2 asphyxiation and the eyes from the 30 mg/kg treatment group were collected and flash frozen for analysis. Data obtained from LC-MS was analyzed via WinNonLin software (version 8.1) for pharmacokinetic parameters.
The determination of the feasibility of administering AGX51 systemically for the treatment of ocular retinopathies was next explored. To determine the half-life of AGX51 in serum, mice were treated by intraperitoneal (i.p.) injection with a single dose of 30 mg/kg or 50 mg/kg AGX51 in 70% DMSO and blood was collected over a 24-hour period. […] Thus, 70% formulations were used in all future studies.

HUVEC = HUVEC scratch (migration) assay; assay type: cell-based, human; conditions: 0-40 μM, 24 hours
Method: HUVEC scratch assay. HUVECs were seeded on 24-well plate coated with 0.1% fibronectin. After 24 hours when cells were grown to confluency, cells were serum starved for 4 hours in Endothelial Basal Medium (EBM, Lonza) and scraped with a sterile P200 pipette tip to generate a cell free zone. Cells were washed with PBS and stimulated with EGM-2 medium with the indicated AGX concentration for 24 hours. The scratched area at 0 and at 24 hours was visualized using an inverted microscope and photographed with a digital camera at 20× magnification.

[2] = Concentration of AGX51 in the eyes after i.p. dosing; assay type: in vivo, mouse; conditions: 30 mg/kg i.p.
Method: as §1
The concentration of AGX51 was thus measured in the eyes of mice dosed i.p. with 30 mg/kg AGX51 by mass spectrometry over 24 hours. […] The amount of AGX51 reaching the eye was well below the amount required by intraocular injection to show efficacy, which could be due to incomplete recovery from the extraction of dissected eyes or that effective dose ranges vary considerably with delivery route.

MDA-MB-436 = experiment: MTT assay, MDA-MB-436; assay type: cell-based; conditions: Homo sapiens, 24 h, MDA-MB-436, TNBC cell line, read-out: IC50 value after 24 hours of treatment
From the text: (§2) The 4T1 murine mammary tumor cell line and nine breast cancer cell lines representing the major breast cancer subtypes (ER+, HER2+, and TNBC) including MDA-MB-157, MDA-MB-436, MDA-MB-231, MDA-MB-453, MDA-MB-361, BT-474, SK-BR-3, MCF-7 and T47-D will be grown in RPMI or DMEM (Dulbecco's Modified Eagle Medium) media supplemented with 10% FBS (fetal bovine serum), 1% penicillin-streptomycin and 1% L-Glutamine. Patient derived xenograft cell lines BR7, BR11, and IBT will be established directly from breast cancer bone metastases specimens surgically resected from patients with informed consent. BR7 and BR11 specimens will be obtained from ER positive (HER2 negative and PR negative) metastatic breast cancer patients, while the IBT specimen will be obtained from a metastatic, triple negative breast cancer patient. Fresh tumor tissues will be quickly washed with ice cold PBS and minced into about 1-3 mm pieces in MEM medium (without FBS) using sterile razor blades. […] The cells will be treated with either 100 μM DMSO, AGX51, or a compound of the present technology such as AGX-A. The cell morphology and growth will be monitored daily for 1 week by microscopy for changes in morphology or cell death. […] Absorbance will then measured at 570 nm using a plate reader (Synergy 2, BioTek). […]

PDX-BR11 = experiment: MTT assay, PDX-BR11; assay type: cell-based; conditions: 24 h, PDX-BR11, PDX cell line, read-out: IC50 value after 24 hours of treatment
From the text: as §2

[3] = test system: cholangiocarcinoma cells (SNU1079, SNU1196); experiment: AGX-A cyclodextrin formulations on cholangiocarcinoma cells (24 hour cell viability); assay type: cell-based
Method: To overcome the issue DMSO posed, investigations were performed to develop a formulation that was compatible with AGX-A as well as well-suited for administration.
Ultimately, a particularly efficacious formulation employing 2-hydroxypropyl-β-cyclodextrin (“HPBCD”) was discovered. […] Representative data is illustrated in FIGS. 25A-25B which provide the results of 24 hour cell viability studies for SNU1079 cells and SNU1196 cells, respectively.

Compound: CCC(=O)N(CCC(c1ccc2c(c1)OCO2)c1ccccc1OC)Cc1ccccc1 (racemic) [AGX51, N-(3-(benzo[d][1,3]dioxol-5-yl)-3-(2-methoxyphenyl)propyl)-N-benzylpropionamide]
- mean maximum serum concentration ([1]; 30 mg/kg i.p., 70% DMSO): 1.1 μg/mL and 2.7 μM
- mean maximum serum concentration ([1]; 50 mg/kg i.p., 70% DMSO): 1.6 μg/mL and 4 μM
- mean maximum serum concentration vs lower doses ([1]; 100 mg/kg i.p., 70% DMSO): not increased further
- mean serum concentration ([1]; 100 mg/kg i.p., 100% DMSO): ~12 µM
- HUVEC migration (HUVEC): significantly impaired HUVEC migration
- half-life in the eye [2]: 3.7 h
- maximum concentration in the eye ([2]; after 30 minutes): ~4 ng/eye
- IC50 (MDA-MB-436): 30.9 µM
- IC50 (PDX-BR11): 18.6 µM

Compound: COc1ccccc1C(CCNCc1ccccc1)c1ccc(OC(C)C)cc1 (centres unmarked) [AGX-A, N-benzyl-3-(4-isopropoxyphenyl)-3-(2-methoxyphenyl)propan-1-anine]
- AGX-A activity against cholangiocarcinoma cells ([3]; aqueous solution with HPBCD, 24 hour): preserving AGX-A activity
- AGX-A induced cell death ([3]; formulations with sulfobutylether-β-cyclodextrin (CAPTISOL)): neutralized AGX-A induced cell death

Source: patent US20220356163A1, “SMALL MOLECULE INHIBITORS OF Id PROTEINS” (MEMORIAL SLOAN KETTERING CANCER CENTER, priority 2019, published 2022)
